Laboratory results taken from patent publication US20220226293A1, “TREATMENTS OF ANGIOEDEMA” (KALVISTA PHARMACEUTICALS LIMITED, priority 2019, published 2022).
One block for each molecule: values may come before it.

What was measured:
[1] = background, literature and labels; cited from earlier work
[2] = target: purified PKa (Homo sapiens, UniProt P03952); test: Rate of formation of the enzyme-inhibitor complex (Kon); assay type: biochemical
Method: The rate of formation of the enzyme-inhibitor complex (Kon) was determined using purified PKa rapidly mixed with a solution containing fluorogenic substrate and a concentration range of inhibitor. The time-dependent establishment of inhibition was then used to calculate the rate of formation of the enzyme-inhibitor complex for each concentration of inhibitor. The Kon was calculated by plotting the rate of inhibition versus the inhibitor concentration. Data in Table 1 are presented in μM^−1 sec^−1.

[3] = target: PKa in DXS-activated plasma (Homo sapiens, UniProt P03952); test: Catalytic activity of PKa in dextran sulfate-activated plasma; assay type: biochemical; details: read-out: IC50 plasma enzyme
PKa in DXS-activated plasma, sequence (P03952 391-638 limits assumed): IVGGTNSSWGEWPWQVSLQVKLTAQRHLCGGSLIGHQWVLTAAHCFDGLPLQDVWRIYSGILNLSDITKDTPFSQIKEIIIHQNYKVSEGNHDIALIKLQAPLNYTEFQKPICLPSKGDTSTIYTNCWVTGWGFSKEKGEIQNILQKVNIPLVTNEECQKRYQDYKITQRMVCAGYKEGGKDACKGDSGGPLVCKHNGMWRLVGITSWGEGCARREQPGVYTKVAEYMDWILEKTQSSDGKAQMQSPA
PKa in DXS-activated plasma, sequence (P03952 20-390 partner limits assumed): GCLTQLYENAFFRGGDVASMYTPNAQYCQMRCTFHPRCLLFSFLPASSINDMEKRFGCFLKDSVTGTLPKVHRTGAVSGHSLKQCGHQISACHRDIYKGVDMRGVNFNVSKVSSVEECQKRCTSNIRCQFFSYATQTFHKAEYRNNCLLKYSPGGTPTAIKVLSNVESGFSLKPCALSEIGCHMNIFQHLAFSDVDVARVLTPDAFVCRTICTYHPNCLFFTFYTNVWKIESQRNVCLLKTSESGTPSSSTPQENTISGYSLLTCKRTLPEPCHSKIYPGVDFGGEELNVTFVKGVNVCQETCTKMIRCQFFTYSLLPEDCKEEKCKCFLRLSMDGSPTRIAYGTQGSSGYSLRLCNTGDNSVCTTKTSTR
Method: Catalytic activity of PKa in dextran sulfate-activated (DXS, Sigma; 10 μg/ml) plasma (1:4 diluted or undiluted, VisuCon-F control plasma, Affinity Biologicals Inc) was determined by the time-dependent hydrolysis of fluorogenic substrate.

[4] = target: T1, plasma kallikrein-kinin pathway enzyme activity in pre-activated plasma (Homo sapiens, UniProt P03952); test: Inhibition of enzyme activity of pre-activated undiluted plasma (compound added after DXS); assay type: biochemical; details: added 3.5 minutes post DXS; compound 300, 1000, 3000 nM; C1-INH 3000 nM
T1 construct: from tissue
T1 sequence (P03952 391-638 limits assumed): as the sequence (P03952 391-638 limits assumed) above
T1 sequence (P03952 20-390 partner limits assumed): as the sequence (P03952 20-390 partner limits assumed) above
Method: The ability of the compound to inhibit the enzyme activity of pre-activated plasma was assessed by addition of the compound after DXS stimulation. Aliquots of plasma (20 μL) were mixed with a 2.5 μL solution containing […] fluorogenic substrate (H-DPro-Phe-Arg-AFC) and a 2.5 μL solution of dextran sulphate (DXS; 100 μg/mL) which acted as an activator of the plasma kallikrein-kinin pathway. Enzyme activity was immediately measured by monitoring the accumulation of fluorescence liberated from the substrate by substrate cleavage over 16 minutes. At 3.5 minutes post DXS addition 5 μl of inhibitors or water control are were added into each well. The compound was tested at concentrations of 300, 1000 and 3000 nM. C1-INH at a concentration of 3000 nM and vehicle controls were also included.

[5] = target: T2, Human plasma kallikrein (Homo sapiens, UniProt P03952); test: Plasma kallikrein inhibitory activity in vitro, purified enzyme, fluorogenic substrate; assay type: biochemical; details: 25° C., substrate H-DPro-Phe-Arg-AFC
T2 construct: purchased Protogen
T2 sequence (P03952 391-638 limits assumed): as the sequence (P03952 391-638 limits assumed) above
T2 sequence (P03952 20-390 partner limits assumed): as the sequence (P03952 20-390 partner limits assumed) above
Method: Human plasma kallikrein (Protogen) was incubated at 25° C. with the fluorogenic substrate H-DPro-Phe-Arg-AFC and various concentrations of the test compound. Residual enzyme activity (initial rate of reaction) was determined by measuring the change in […] at 410 nm and the IC50 value for the test compound was determined.

[6] = Phase 1 SAD and food effect study: safety and tolerability; assay type: in vivo, human; details: phase I trial, healthy males
Source text: (§1) This study was a randomized, double-blind, placebo-controlled single ascending dose (SAD) and crossover studies for food effect and capsule/tablet formulations.

[7] = tested on: HK cleavage in undiluted citrated human plasma; test: Protection of HK from PKa-mediated cleavage in DXS-stimulated HAE and control plasma (WES immunoassay); assay type: biochemical; details: HAE and healthy control plasma stimulated with dextran sulfate
Method: High molecular weight kininogen (HK) cleavage in undiluted citrated human plasma was induced by contact system activation with dextran sulfate (DXS, Sigma #31395-10G; 6.25 μg/ml) on wet ice. […] HAE plasma was obtained from HAE subjects (n=6) and C1-inhibitor deficiency was confirmed by western blotting. Protection of HK from PKa mediated cleavage in DXS-stimulated whole undiluted plasma was then determined by two methods; traditional western blotting and a semi-automated capillary-based immunoassay.
Capillary-based immunoassay on the WES System (ProteinSimple):
Preparation of samples: Combine one part 5× fluorescent master mix with four parts of the 1:200 plasma sample. Vortex to mix. Heat the samples+fluorescent master mix and the biotinylated ladder at 95° C. for 5 minutes, vortex, and load onto the WES plate. Monoclonal anti-human HK antibody was used for this chemiluminescence-based detection method using the Wes System (ProteinSimple).
Analysis: Collect the peak area measurement obtained in the Compass software (cbz file) for the full-length HK molecular weight of the respective time-point sample with DXS-induced activation. The peak area is defined as the area calculated for the spectral peak profile for HK. To measure the plasma kallikrein inhibition by the compound, the percent full-length HK detected was calculated.

[8] = tested on: plasma prekallikrein; test: Phase 1 SAD: ex vivo DXS-stimulated cleavage of plasma prekallikrein, Wes immunoassay; parameters: species or system human; details: 600 mg orally in capsules, up to 12 hrs post-dose
Source text: (§2) DXS-stimulated cleavage of plasma prekallikrein and Factor XII (FXII) were quantified by capillary-based immunoassay on the Wes System (ProteinSimple) analogously.

[9] = tested on: HK cleavage; test: Phase 1 SAD: ex vivo DXS-stimulated cleavage of HK, Wes capillary immunoassay; parameters: species or system human; details: 600 mg orally in capsules, up to 12 hrs post-dose
Method: DXS-stimulated cleavage of HK, in undiluted plasma was quantified by capillary-based immunoassay on the Wes System (ProteinSimple) using monoclonal anti-HK antibody and chemiluminescence-based detection. Plasma kallikrein mediated HK cleavage in undiluted citrated human plasma was induced by contact system activation with DXS (6.25 μg/ml) at 4° C. in selected samples from the SAD phase.

[10] = Phase 1 multiple dose study: safety, tolerability, ECG; assay type: in vivo, human; details: healthy adults
Method: This is a phase 1, double-blind, placebo-controlled, multiple-dose, multiple-cohort study to evaluate safety and tolerability of the compound as well as of the ECG effects of the compound formulated as 100 mg Film Coated Tablets in healthy adult male and female subjects.
During the study, oral doses of 600 mg of the compound as Film Coated Tablets (six 100 mg tablets) or 6 matching placebo tablets will be administered once every 8 hours (Cohort 1) every 4 hours (Cohort 2), or every 2 hours (Cohort 3 and 4) to healthy adult male and female subjects up to a total dose of 1800 mg. In Cohorts 1, 2 and 3, 6 subjects will receive the compound as 100 mg Film Coated Tablets and 2 subjects will receive the placebo for a total of 8 subjects per cohort. In Cohort 4, 12 subjects will receive the compound as 100 mg Film Coated Tablets and 6 subjects will receive the placebo for a total of 18 subjects.
A Holter monitor will be attached to each subject in order to continuously record ECGs. The monitor will be attached 1 hour before the first dose and will remain attached until after the final blood sample collection. The electrodes for the Holter monitor will be checked by a member of the clinic staff at appropriate intervals to ensure they are attached.

[11] = Phase 1 SAD: plasma pharmacokinetics (LC MS/MS); assay type: in vivo, human
Method: Samples for pharmacokinetic (PK) and PD assessment were taken at repeated intervals over 48 hours.
Plasma samples used for PK assessment were analysed using a validated liquid chromatography tandem mass spectrometry (LC MS/MS) method.

[12] = target: T3, plasma kallikrein catalytic activity (Homo sapiens, UniProt P03952); test: Phase 1 SAD / food effect: ex vivo PKa catalytic activity in DXS-stimulated undiluted plasma
T3 construct: from tissue; host or cells: undiluted plasma of healthy male study participants after oral dosing, stimulated ex vivo with dextran sulfate
T3 sequence (P03952 391-638 limits assumed): as the sequence (P03952 391-638 limits assumed) above
T3 sequence (P03952 20-390 partner limits assumed): as the sequence (P03952 20-390 partner limits assumed) above
Method: as §1
PD measurements were determined in dextran sulfate (DXS) stimulated undiluted plasma using a fluorogenic enzyme assay and capillary based HK cleavage immunoassay.
The time until appearance of detectable amidolytic enzyme activity in DXS-stimulated plasma (lag time) was calculated from the catalytic activity assay. The detection sensitivity of the rate of catalytic activity in plasma based on using a Spark (Tecan) fluorimeter is a fluorescence increase to reach 1ΔF unit/sec.

[13] = tested on: HK cleavage in undiluted plasma; test: DXS-activated cleavage of HK in undiluted plasma (immunoblot); assay type: biochemical, human; details: 300 nM PKa inhibitor, 20 min incubation with DXS
Method: DXS-activated cleavage of HK in undiluted plasma was performed in the absence or presence of 300 nM PKa inhibitor and quantified by SDS-PAGE gel electrophoresis, using 7.5% Criterion TGX Precast gels (Biorad). Transfer was made onto Immunobilon-FL PVDF membrane. Image analysis was done using the LICOR imaging system. Mouse monoclonal anti-HK antibody (MAB15692, R&D systems) was used for traditional immunoblotting. Data presented as % of HK remaining after 20 min incubation with DXS compared to HK levels in unactivated plasma (Table 1).

[14] = tested on: Factor XII (FXII); test: Phase 1 SAD: ex vivo DXS-stimulated cleavage of Factor XII / generation of FXIIa, Wes immunoassay; parameters: species or system human; details: 600 mg orally in capsules, up to 12 hrs post-dose
Source text: as §2

[15] = 3 x 600 mg every 8, 4 or 2 hours

purified PKa, sequence (P03952 391-638 limits assumed): as the sequence (P03952 391-638 limits assumed) above
purified PKa, sequence (P03952 20-390 partner limits assumed): as the sequence (P03952 20-390 partner limits assumed) above

Molecule: Ecallantide
reported adverse reactions / risks [1]: risk of anaphylactic reactions

Molecule: N#Cc1cccc([C@@H](NCC2CC2)c2ccc(F)c(NC(=O)c3cc(C(F)(F)F)nn3-c3cccc(CN)c3)c2)c1 [Berotralstat]
reported adverse reactions / risks [1]: higher doses were associated with more gastrointestinal adverse effects

Kon [2]: 40000 M⁻¹ s⁻¹
IC50 [3]: 1700 nM
inhibition of enzyme activity after activation of plasma [4]: slower action
IC50 [5]: 50 nM
Molecule: C1-INH: C1 inhibitor (C1-INH, Sigma Cat #E0518), comparator [Compound C1-INH]

plasma concentration ([11]; following a dosage amount of at least about 60 mg): at least 500 ng/mL
plasma exposure ([11]; oral capsule, fasted, 5 mg to 600 mg): rapid and dose-dependent plasma exposure
inhibition at 600 mg ([12]; 600 mg tablet, by 30 minutes, fed and fasted state): > 90%
food effect on pharmacodynamic (PD) profile ([12]; 600 mg tablet, fed and fasted state): no significant food-effect
inhibition at 160 mg ([12]; po, cohort 6 (160 mg oral), between 45 min and 2 hr post-dose): > 90%
inhibition at 300 mg ([12]; po, cohort 7 (300 mg oral), between 20 min and 4 hr post-dose): > 90%
Molecule: COCc1nn(Cc2ccc(Cn3ccccc3=O)cc2)cc1C(=O)NCc1nccc(OC)c1F [Compound of Formula A, N-[(3-fluoro-4-methoxypyridin-2-yl)methyl]-3-(methoxymethyl)-1-({4-[(2-oxopyridin-1-yl)methyl]phenyl}methyl)pyrazole-4-carboxamide]
serious adverse events [6]: No serious adverse events were reported
tolerability signals [6]: no tolerability signals
protection against HK cleavage [7]: dose dependent protection against HK cleavage
effect on PPK cleavage [8]: reduces PPK cleavage
effect on HK cleavage [9]: reduces HK cleavage
serious adverse events [10, 15]: No serious adverse events were reported
severity of reported adverse events [10, 15]: mild
effects on the studied ECG parameters ([10]; 3 x 600 mg): No clinically relevant effects
lag time (time until appearance of catalytic activity during contact system activation) ([12]; 600 mg dose, tablet formulation): increases the time until appearance of catalytic activity
detectable catalytic activity after prolonged DXS activation ([12]; 600 mg tablet, early time points post-dose): did not display detectable catalytic activity
HK protection (% of HK remaining vs unactivated plasma) [13]: 85%
effect on generation of FXIIa [14]: reduces the generation of FXIIa

B1: lanadelumab: recombinant fully human IgG1 kappa light chain monoclonal antibody, active substance of Takhzyro® (antibody, chains of the INN, looked up, V domains shown)
VH: EVQLLESGGGLVQPGGSLRLSCAASGFTFSHYIMMWVRQAPGKGLEWVSGIYSSGGITVYADSVKGRFTISRDNSKNTLYLQMNSLRAEDTAVYYCAYRRIGVPRRDEFDIWGQGTMVTVSS
VL: DIQMTQSPSTLSASVGDRVTITCRASQSISSWLAWYQQKPGKAPKLLIYKASTLESGVPSRFSGSGSGTEFTLTISSLQPDDFATYYCQQYNTYWTFGQGTKVEIK
reported adverse reactions / risks [1]: hypersensitivity, injection site pain, injection site erythema, and injection site bruising
